Measurements published in ChEMBL document CHEMBL3507680, “University of Dundee, Gates Library screen for HepG2 cell viability”.

Experiment: Human HepG2 cell viability assay in 384 well format
Type: toxicity, cell-based
Set-up: dose 125 nL, time 70.5 hour; cytotoxicity at 70.5 h: concentration not given beside the values
Conditions: HepG2 cells, read-out: Inhibition
For COCCNC(=O)C1(Cc2ccccc2-c2ccncc2)CCOCC1, the cytotoxicity at 70.5 h was -9.35%. c1ccc(Cc2noc(CN3CCCCC3Cn3cncn3)n2)cc1 (centres undefined) gave a cytotoxicity at 70.5 h of 11.2%. CN1CSC[C@H]1C(=O)N1CCC(CCc2ccccc2)CC1 gave a cytotoxicity at 70.5 h of -5.84%. Compound CCOc1ccc(CCCC(=O)N2CCC(c3nnn[nH]3)CC2)cc1C has a cytotoxicity at 70.5 h of -11.9%. CCn1c(C2CCCN(Cc3ccnc4ccccc34)C2)nn(C)c1=O (centres undefined) showed a cytotoxicity at 70.5 h of -7.68%. For CS(=O)(=O)CCN1CCC(=Cc2ccccc2)CC1, the cytotoxicity at 70.5 h was -3.57%. For CCOC(=O)c1sc2ccsc2c1CNC(=O)CC, the cytotoxicity at 70.5 h was -3.4%. With CNC(=O)COC1COC2(CCN(Cc3cccnc3OC)CC2)C1 (centres undefined) the cytotoxicity at 70.5 h was -8.67%. Work on COc1cc2c(cc1CNCc1cccnc1-n1cccn1)OC(C)C2 (centres undefined) yielded a cytotoxicity at 70.5 h of 16.8%. Work on CC(C)(C)n1ncc2c1NC(=O)CC2c1ccc(OCC(N)=O)cc1 (centres undefined) yielded a cytotoxicity at 70.5 h of -10.7%. With COc1c(CNCC(O)c2cccc(F)c2)c(C(C)C)nn1C (centres undefined) the cytotoxicity at 70.5 h was 2.55%. O=S(=O)(C1CC1)N1C[C@H]2CCC[C@@]2(COCc2ccccn2)C1 gave a cytotoxicity at 70.5 h of -14.3%. For COC(=O)NCC(=O)NC(c1ccc(Cl)cc1)C(F)(F)F (centres undefined), the cytotoxicity at 70.5 h was -8.75%. Compound O=C(CN1CCN(CC(O)C2CC2)CC1)NCc1ccccc1Cl (centres undefined) has a cytotoxicity at 70.5 h of -10.5%. Compound Cc1nc(-c2nc(C(=O)N3CCOCC3)c3ccccn23)cn1C(C)C has a cytotoxicity at 70.5 h of -5.18%. O=C([C@H]1CC[C@@H]2[C@@H](CCN2Cc2nccs2)O1)N1CCOCC1 showed a cytotoxicity at 70.5 h of -5.21%. O=C(C1CCOCC1)N1C[C@@H]2OCCN(CCN3CCCC3)[C@@H]2C1 gave a cytotoxicity at 70.5 h of -3.55%. Compound CN(C)CCN(C)c1cc(N2CCN(c3ccccn3)CC2)ncn1 has a cytotoxicity at 70.5 h of 13.5%. For COc1c(F)cc(CN2CCC3(CC2)CN(C)C(=O)O3)cc1Cl, the cytotoxicity at 70.5 h was -7.54%. In the case of N#Cc1ccc(OCCCN2CCOC(Cn3cncn3)C2)cc1 (centres undefined), the cytotoxicity at 70.5 h was 32.1%. Work on CC(NS(C)(=O)=O)c1nc(-c2ccc(Br)cc2)no1 (centres undefined) yielded a cytotoxicity at 70.5 h of -5.32%. COc1cccc2cc(CNCc3ccc(N4CCCC4)nc3)oc12 showed a cytotoxicity at 70.5 h of 16%. For Cc1cn2c(n1)CCC(NC(=O)CCCOCc1ccccc1)C2 (centres undefined), the cytotoxicity at 70.5 h was -12.5%. For Cn1cc(CN2CCCC3(CCN(C(=O)c4ccoc4)C3)C2)cn1 (centres undefined), the cytotoxicity at 70.5 h was -11%. With CN(C)c1ncc(-c2cc(C(=O)NC(C)(C)CO)n(CC3CC3)c2)cn1 the cytotoxicity at 70.5 h was -12.5%. For Fc1cccc(Cl)c1CN1CCn2c(nnc2C2CC2)C1, the cytotoxicity at 70.5 h was -10.3%. O=C(c1cccnc1)N1C[C@@H]2OCC(=O)N(Cc3cccnc3)[C@@H]2C1 showed a cytotoxicity at 70.5 h of -3.03%. With Cc1ccccc1CC1(CO)CCCN(c2ncccc2C#N)C1 (centres undefined) the cytotoxicity at 70.5 h was -4.27%. In the case of Cn1cc(NS(=O)(=O)c2ccc(OC(F)(F)F)cc2)ccc1=O, the cytotoxicity at 70.5 h was 18%. With Cc1cnn(C2CN(CC(=O)NCCc3ccccc3)C2)c1 the cytotoxicity at 70.5 h was -16.2%. With Cc1noc(C)c1-c1cc(CC2CCN(C(=O)c3cc[nH]n3)C2)ncn1 (centres undefined) the cytotoxicity at 70.5 h was -0.894%. With CC(C)c1nnc(NC(=O)N2CCN(C)CC2c2ccccc2)s1 (centres undefined) the cytotoxicity at 70.5 h was 9.58%. For Cc1nc2cc(=O)[nH]n2c(C)c1CC(=O)NC(C)C, the cytotoxicity at 70.5 h was -7.48%. Cc1ccc(-c2ccnc(N(C)CC3CCCN3C)n2)c(C)n1 (centres undefined) showed a cytotoxicity at 70.5 h of 16.3%. Cc1nc(C2CCCN2CCCS(=O)(=O)c2ccccc2)no1 (centres undefined) gave a cytotoxicity at 70.5 h of -3.41%. With Cc1cc(C2CCCN(S(=O)(=O)c3cn[nH]c3)C2)ccn1 (centres undefined) the cytotoxicity at 70.5 h was -7.27%. Compound CN(C)S(=O)(=O)CCCN1CCc2c(ncn2C2CC2)C1 has a cytotoxicity at 70.5 h of 9.65%. CN1CCOC(CNC(=O)CCc2cc(F)ccc2F)C1 (centres undefined) gave a cytotoxicity at 70.5 h of -4.57%. In the case of CNC(=O)[C@@]12CCCN(c3ncccn3)[C@@H]1CN(C)C2, the cytotoxicity at 70.5 h was 29.8%. Compound Cc1ccc(N2CCO[C@H]3CN(CC4CC4)C[C@H]32)nn1 has a cytotoxicity at 70.5 h of -13.4%. In the case of Cn1ccc(C(=O)NCCOc2ccc3c(c2)OCO3)cc1=O, the cytotoxicity at 70.5 h was -6.82%. Work on O=C(Nc1cnn(CC(=O)N2CCCCO2)c1)c1ccsc1 yielded a cytotoxicity at 70.5 h of -2.35%. Work on CC(C)CN1CCN(C(=O)CCn2cccn2)CC1 yielded a cytotoxicity at 70.5 h of -1.87%. In the case of CN(C)c1ncnc2c1CCN(C(=O)c1sccc1S(N)(=O)=O)C2, the cytotoxicity at 70.5 h was -2.96%. For CN(C)C(C(=O)N1CCC(N2CCSCC2)CC1)c1ccccc1F (centres undefined), the cytotoxicity at 70.5 h was -3.23%. With Cn1cccc1C(O)CNC(=O)c1ccc(F)c(F)c1 (centres undefined) the cytotoxicity at 70.5 h was -13.5%. For CCCC(C)(C)NC(=O)c1cnc(C)s1, the cytotoxicity at 70.5 h was 2.45%. Cc1nc(CNC(=O)Nc2cc(C(F)(F)F)c[nH]c2=O)cs1 gave a cytotoxicity at 70.5 h of 1.62%. CCC(COC)NC(=O)N1CCC(n2ccc(C(F)(F)F)n2)CC1 (centres undefined) showed a cytotoxicity at 70.5 h of -104%. Work on Cc1cn2c(=O)c(-c3ccnc(N[C@@H]4CCOC4)n3)cnc2s1 yielded a cytotoxicity at 70.5 h of -3.69%. With Cc1cccc2c1OCCC2NCc1c(C(C)C)nn(C)c1N(C)C (centres undefined) the cytotoxicity at 70.5 h was -10.6%. c1ccc(-c2nnc([C@H]3CCN(C4CCC4)C3)o2)cc1 showed a cytotoxicity at 70.5 h of 0.134%. Work on Cc1cc(C)c2c(c1)C(NCc1c(C)nn(C)c1N(C)C)CCO2 (centres undefined) yielded a cytotoxicity at 70.5 h of 3.6%. Work on O=C1OC2(CCNCC2)CN1CC(=O)N1CCCC1c1ccco1 (centres undefined) yielded a cytotoxicity at 70.5 h of -9.95%. COCCN1CCN(Cc2cccnc2)[C@H]2CS(=O)(=O)C[C@H]21 showed a cytotoxicity at 70.5 h of 21.4%. Cc1ccc(CC(=O)N(CC2CN(C)CCO2)c2nccs2)cn1 (centres undefined) gave a cytotoxicity at 70.5 h of 11.5%. Compound O=C1COC[C@H]([C@H](O)c2ccc(NC(=O)c3cccnc3)cc2)N1 has a cytotoxicity at 70.5 h of -5.64%. Compound COCCC(=O)N1CCC2(CCN(Cc3cccc(F)c3)CC2)C1 has a cytotoxicity at 70.5 h of -4.51%. For O=C1[C@@H]2CCN(Cc3ccoc3)C[C@@H]2OCCN1c1cccnc1, the cytotoxicity at 70.5 h was -13.5%. Work on Cc1cc(S(=O)(=O)N2CCCc3cc(F)cc(F)c32)sc1C(=O)O yielded a cytotoxicity at 70.5 h of 11.1%. Work on COc1ccc(C2CC(=O)NCc3nc(N(C)C)sc32)c(O)c1 (centres undefined) yielded a cytotoxicity at 70.5 h of 2.48%. Work on CS(=O)(=O)CC1(CNc2cc(C#N)c3cc(Cl)ccc3n2)CC1 yielded a cytotoxicity at 70.5 h of -6.39%. With CS(=O)(=O)N1CCc2[nH]cnc2C12CCN(C(=O)c1ccccc1)CC2 the cytotoxicity at 70.5 h was -1.52%. Work on Fc1ccccc1OC1CCN(CCn2cc3ccccc3n2)CC1 yielded a cytotoxicity at 70.5 h of -22%. CC(=O)N1CCC2(CCCN(C(=O)c3ccc(Cl)c(C(F)(F)F)c3)C2)C1 (centres undefined) gave a cytotoxicity at 70.5 h of -14.2%. For CC(=O)N[C@@H]1CN(C(=O)c2cnc3ccccc3c2)C[C@H]1O, the cytotoxicity at 70.5 h was 10.7%. For Cc1cnn(CC2CCCN2Cc2nc3ccccc3n2C)c1 (centres undefined), the cytotoxicity at 70.5 h was -10.6%. CN(Cc1cccnc1)C(=O)NC1CCN(Cc2ccccn2)CC1 showed a cytotoxicity at 70.5 h of 0.886%. With Cc1ccnc(NC(=O)C2CCN(CCCn3ccnc3C)CC2)c1 the cytotoxicity at 70.5 h was -13%. For CC1(C)CC(CC(=O)N2CC(C)(C)[C@@](C)(O)C2)CC(C)(C)N1, the cytotoxicity at 70.5 h was 13%. Cc1cc(C)n(Cc2cccc(C(=O)N(CCC#N)CCC#N)c2)n1 gave a cytotoxicity at 70.5 h of -0.535%. Compound Cc1ccc(N2CCCN(C(=O)CCc3nccs3)CC2)nn1 has a cytotoxicity at 70.5 h of -8.06%. Work on CN1CCCN(c2nccc(-c3cncnc3C3CCCCC3)n2)CC1 yielded a cytotoxicity at 70.5 h of 20.6%. With CCN(Cc1ccc2c(c1)OCCO2)C(=O)NCc1csc(C)n1 the cytotoxicity at 70.5 h was -9.9%. For CC(C)Cc1cc(C(=O)N2CC(OCc3ccccc3F)C2)n(C)n1, the cytotoxicity at 70.5 h was -2.8%. In the case of CCOC(=O)[C@@H]1[C@@H](O)C(=O)N(C)C12CCN(C(=O)c1ccco1)CC2, the cytotoxicity at 70.5 h was -4.06%. Work on CC(C)(C#N)C(=O)Nc1nccn1Cc1ccc(Br)cc1 yielded a cytotoxicity at 70.5 h of 11.2%. CN(c1ccccc1C(=O)O)S(=O)(=O)c1cccc2cccnc12 showed a cytotoxicity at 70.5 h of -6.45%. CCOC(=O)NC(CNC(=O)c1cccnc1SC)CC(C)C (centres undefined) gave a cytotoxicity at 70.5 h of 8.28%.
